Assay results reported in patent US8492341B2, “Amyloid-β binding peptides” (Alzyme Pty Ltd., priority 2006, dated 2013).
Square brackets hold non-standard residues; d marks the D form.

What was measured:
[1] = molecular target: Aβ (Homo sapiens, UniProt P05067); experiment: Copper-induced Aβ oligomer generation (SDS-PAGE, WO2 immunoblot); type: biochemical; conditions: Aβ 5 uM, Cu+2 25 μM, 0-1000 μM peptide, 37 C, 24 hours; vs reverse peptide control
Description: Incubation of Aβ with copper generates cross-linked oligomeric species (Atwood et al., 2000: Cell Mol Biol, 46: 777-783; Atwood et al., 2004: Biochemistry, 43: 560-568). In this experiment, Aβ (5 uM) is incubated with Cu+2 (25 μM) and 0-1000 μM of the modified peptides at 37 C for 24 hours. After the incubation period, 20 ng is loaded onto an SDS-PAGE gel and immunoblotted with WO2 antibody. Compared to the reverse peptide control, all the modified peptides inhibited the generation of Aβ oligomers at various concentration.

[2] = tested on: human Aβ42; experiment: MTS cell viability assay of MP2 analogues, cells treated with human Aβ42 (20 μM); type: cell-based; conditions: peptide 400 μM
Description: FIG. 7 illustrates the effect of various peptide analogues of the peptide analogue of SEQ ID NO:2 on cell viability associated with human Aβ1-42. Cells were treated with human Aβ42 peptide (20 μM) in the absence or presence of increasing doses of MP2, MP4, MP5 or MP6 (n=6, for each peptide). Cell viability was assessed by the MTS assay.
Cells were treated with human Aβ42 peptide (20 μM) in the absence or presence of increasing doses of MP2, MP4, MP5 or MP6 (n=6, for each peptide). Cell viability was assessed by the MTS assay.

[3] = molecular target: T1, human Aβ1-42 (Homo sapiens, UniProt P05067); experiment: DCF fluorescence assay of H2O2 production (SOD-like activity) by human Aβ1-42; type: biochemical; conditions: 200 nM peptide, Aβ1-42 200 nM
T1 sequence (P05067 672-713): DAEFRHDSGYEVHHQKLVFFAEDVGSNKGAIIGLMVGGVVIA
Description: The three candidate peptides (15merTNP, 6merPLP and 6merMTM) were examined to determine whether they could attenuate Aβ's SOD-like activity in vitro. A DCF fluorescence assay was used to assess the efficacy of these peptides on altering the production of physiological (brain) concentrations (200 nM) of human Aβ1-42.
Aβ species were prepared and the assay run as described previously (i.e. Aβ1-42 at 200 nM and Copper and Dopamine concentrations remain unchanged). Peptide analogue MP2 (SEQ ID NO:2) was added to Aβ1-42+Cu solutions at ratios ranging from 0.005:1 to 10.0:1 (i.e. a ration of 0.005:1 would contain 1 nM of respective peptide). The peptide was dissolved in PBS pH7.5. The effect of MP2 on H2O2 production by human Aβ1-42 was determined in triplicate in three separate experiments (i.e. n=9) for doses ranging from 100 to 2000 nM (FIG. 1). These were compared against the level of H2O2 produced by human Aβ1-42 [test peptide analogue MP2+positive control peptide 15merTNP; three experiments done in triplicate, […]]. All data are presented as means±SEM.
For all assays run, the 15merTNP peptide (SEQ ID NO: 3), was included as a positive control for the assay and for comparing its activity with that of the modelled peptide analogue MP2. The effect of 15merTNP (200 nM) on H2O2 production by human Aβ1-42, was determined in triplicate in each of the 12 DCF assays (i.e. n=36) performed in this study.

[4] = tested on: M17 Neuroblastoma cells; experiment: MTS cell viability assay, cell death induced by human Aβ1-42 (40 μM); type: cell-based; conditions: for reduction of cell death associated with human Aβ1-42: Aβ1-42 40 μM
Description: M17 Neuroblastoma cells were seeded in a 48 well plate at a density of 50,000 cells per well. The plate was incubated for 24 hours at 37° C. in media (OPTI-MEM) containing 10% FCS. The next day the cells were treated with human Aβ1-42 (40 μM) in the presence or absence of the peptides 15merTNP or peptide analogue MP2 (FIG. 2). The peptides were provided at concentrations ranging from 20-400 μM prepared in Neuro basal media containing B27 supplement without antioxidants. Following incubation (4 days at 37° C.), cell viability was assessed using the CellTiter 96® AQueous One Solution cell proliferation assay (MTS; Promega, Wis., USA) as per manufactures instructions. Briefly, 200 μl of MTS reagent (1/10 dilution) was added directly to the culture wells and the plate incubated for 3 hours at 37° C. Following incubation, 150 μl of the solution was transferred to a 96 well plate and the absorbance is determined spectrophotometrically at 490 nm.
Similar to the MTT assay, the MTS assay is a colorimetric method for determining the number of viable cells in proliferation or cytotoxicity assays. The principle of the MTS assay is the same as the MTT assay, except for the tetrazolium compound that is bio-reduced by the mitochondria of the cells, forming a coloured formazan product that is soluble (rather than insoluble for the MTT assay) in tissue culture medium. This conversion is accomplished by NADPH or NADH produced by dehydrogenase enzymes in metabolically active cells: Berridge M V. And Tan A. S. (1993) Characterisation of the cellular reduction of 3-(4,5-dimethylthiazol-2-yl)-2,5-diphenyltetrazolium bromide (MTT): Subcellular localisation, substrate dependence and involvement of mitochondrial electron transport in MTT reduction. Arch. Biochem. Biophys. 303, 474-82.
The effect of human Aβ1-42 (40 μM) on cell viability was determined in triplicate in each of the 10 MTS assays (i.e. n=30) performed in this study. All data are presented as means±SEM.
The effect of peptide analogue MP2 to protect against human Aβ42-induced toxicity was then determined using the MTS assay in triplicate in two separate experiments for all doses (i.e. n=6), unless otherwise specified. The effectiveness of MP2 was compared against the 15merTNP.

[5] = In vitro peptide stability in 10% rodent brain homogenate; type: in vitro ADME, rat; conditions: 10% brain homogenate, 37° C.
Description: For the peptide stability assay in vitro, both 15merTNP and peptide analogue MP2 were incubated separately with fresh 10% rodent brain homogenate to model degradation in tissues. In order to create a physiological dose of peptide in the in vitro assay, both radioactive (^3H-labelled; hot) and non-radioactive (cold) peptides were combined in a set ratio. Cold peptide was added at a dose of […] per ml of 10% brain homogenate. Hot peptide was added at a dose of 250 μCi per ml 10% brain homogenate. Following the addition of hot and cold peptide; the homogenate was vortexed and incubated for different time points. The reaction was stopped by adding complete protease inhibitor cocktail and the samples analysed.
The biological stability of the peptides was evaluated by incubating them (90 nmol) in fresh 10% rodent brain homogenate for different times at 37° C. The amount of intact peptide was estimated by running the supernatant of the homogenate on a 16% Tricine gel to separate peptide that had not had its amino acid sequence degraded. FIG. 3 illustrates the relative stability of 15merTNP and peptide analogue MP2 over two hours run on a 16% Tricine gel from time 0-120 min with samples run in duplicate. The values correspond to the in vitro half-life, which is defined as the time needed for 50% degradation of the peptide.

[6] = parameters: species or system mice (129×1 strain); conditions: mouse, in vivo
Description: Another essential requirement of drug development is the ability of the peptide to cross the BBB and impact on targeted tissue. To measure the ability of 15merTNP and peptide analogue MP2 to cross the BBB, intracerebroventricular (i.c.v) delivery was assessed. The use of i.c.v injections on animal models allows for high doses to be delivered straight to the ventricular spaces where it can cross the parenchyma layer to the brain matter.
For i.c.v injections, control mice (129×1 strain) were anesthetized with intraperitoneal ketamine/xylazine at a dose of 10 ml/kg and then administered with 200 μg of either peptide (90 nmol). Both radioactive (^3H-labelled; hot) and non-radioactive (cold) was used to allow physiological doses of peptide to be delivered.
To determine whether the peptides had effectively penetrated into the brain parenchyma, a capillary depletion experiment was performed. After 25 min post injection the animal was sacrificed and the brain removed. This was homogenized and centrifuged for 10 min at 13000 rpm at 4° C. resulting in a supernatant containing predominately radioactivity from the cortex and a pellet with radioactivity from the capillaries and endothelium. A comparison of radioactivity in each sample was conducted to assess percentage of peptide movement into the cortex. The amount of radioactivity in the capillary pellet of mice that were perfused and not perfused with saline solution was compared to determine the percentage of peptide bound to the luminal surface of the capillaries and sequestered by brain endothelial cells.
A detailed necropsy was performed on each animal following perfusion to thoroughly assess peptide movement throughout peripheral organs, central nervous tissue and blood. […] Thus the concentration of labelled tritium could be measured per mass of sample and using this and the known ratio of non-labelled peptide present, the concentration of total peptide could be determined.
The pharmacokinetic profile of peptide analogue MP2 over four time points, post i.c.v injection into the CNS was determined. […]

[7] = molecular target: T1, human Aβ1-42; conditions: DCF fluorescence assay, 200 nM human Aβ1-42; earlier work PCT/AU02/01754; cited from earlier work

Chain of Aβ (P05067 672-713 limits assumed): as the sequence (P05067 672-713) above

## Ac-Arg-Thr-Pro-Gln-Met-Leu-Lys-NH2 (Ac-RTPQMLK-NH2) [MP4]
[1]
  inhibition of Aβ oligomer formation: most potent

## Ac-DArg-DLys-DLeu-DMet-DGln-DPro-DThr-DArg-DAsn-NH2 (Ac-[dR][dK][dL][dM][dQ][dP][dT][dR][dN]-NH2; SMILES CSCC[C@@H](NC(=O)[C@@H](CC(C)C)NC(=O)[C@@H](CCCCN)NC(=O)[C@@H](CCCNC(=N)N)NC(C)=O)C(=O)N[C@H](CCC(N)=O)C(=O)N1CCC[C@@H]1C(=O)N[C@@H](C(=O)N[C@H](CCCNC(=N)N)C(=O)N[C@H](CC(N)=O)C(N)=O)[C@H](C)O) [MP6]
[2]
  cell viability following treatment with human Aβ42: significantly increased

## Ac-Thr-Arg-Thr-Pro-Gln-Met-Leu-Arg-Lys-NH2 (Ac-TRTPQMLRK-NH2) [MP5]
[2]
  cell viability following treatment with human Aβ42: significantly increased
[1]
  inhibition of Aβ oligomer formation: most potent

## H-TNPNRRNRTPQMLKR-OH [15merTNP, Thr-Asn-Pro-Asn-Arg-Arg-Asn-Arg-Thr-Pro-Gln-Met-Leu-Lys-Arg, reference compound]
[3]
  reduction of human Aβ1-42's H2O2 production: around 30%
[4]; 80 μM peptide
  reduction of cell death associated with human Aβ1-42: 20%
[4]; 200 μM peptide
  reduction of cell death associated with human Aβ1-42: 30%
[5]
  Stability in rat brain homogenate (in vitro half-life): <45 min
[5]; rat, fresh 10% brain homogenate
  half-life at 2.5 mmol per ml: < 45 min
[6]
  crossing of the blood brain barrier: poorly
[7]
  ability to modify Aβ1-42's SOD-like activity: possessed the ability to modify Aβ1-42's SOD-like activity

## human Aβ1-42: beta amyloid peptide used as toxic agent in the cell viability assays [reference compound]
[4]; human Aβ1-42 40 μM alone, 4 days
  reduction of cell viability: ≤ 35%
